According to patent US20060069132A1, “Azolecarboxamide herbicides” (priority 2004, published 2006):
Read-outs that look alike come from different tables or passages of the source.

How the values were obtained:
giant foxtail [1] = assay: Test A pre-/postemergence herbicide test; type: in vivo, Setaria faberi; settings: Setaria faberi, 240 h; for pest or weed control at 500 g/ha: 500 g ai/ha; for pest or weed control at 2000 g/ha: 2000 g ai/ha
Summary of the method: (§1)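 Visual injury rating on a 0–100 scale (0 no effect, 100 complete control) versus untreated controls, about ten days after treatment in greenhouse. Pre: directed soil spray onto seeded sandy loam. Post: spray to runoff on plants 2–10 cm tall at one- to two-leaf stage.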

redroot pigweed = assay: Test A pre-/postemergence herbicide test; type: in vivo, Amaranthus retroflexus; settings: Amaranthus retroflexus, 240 h; for pest or weed control at 500 g/ha: 500 g ai/ha; for pest or weed control at 2000 g/ha: 2000 g ai/ha
Summary of the method: as §1

bermudagrass = assay: Test C pre-/postemergence herbicide test; type: in vivo, Cynodon dactylon
Summary of the method: (§2)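 Pre- and postemergence application, solvent/surfactant formulation; post at 1- to 4-leaf stage (2–18 cm). Greenhouse 12–14 d. Visual rating vs controls, 0 = no effect, 100 = complete control.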

large crabgrass = assay: Test C pre-/postemergence herbicide test; type: in vivo, Digitaria sanguinalis
Summary of the method: as §2

woolly cupgrass = assay: Test C pre-/postemergence herbicide test; type: in vivo, Eriochloa villosa
Summary of the method: as §2

giant foxtail [2] = assay: Test C pre-/postemergence herbicide test; type: in vivo, Setaria faberi
Summary of the method: as §2

goosegrass = assay: Test C pre-/postemergence herbicide test; type: in vivo, Eleusine indica
Summary of the method: as §2

pigweed = assay: Test C pre-/postemergence herbicide test; type: in vivo, Amaranthus retroflexus
Summary of the method: as §2

ducksalad = assay: Test C flooded paddy test; type: in vivo, Heteranthera limosa; settings: Heteranthera limosa
[3] = post-emergence, Postemergence, 0 to 100 scale, 0 no effect, 100 complete control, read-out: Plant response rating, Foxtail, Giant
[4] = post-emergence, Postemergence, 0 to 100 scale, 0 no effect, 100 complete control, read-out: Plant response rating, Pigweed
[5] = Preemergence, 500 g ai/ha, scale 0 to 100, 0 no effect, 100 complete control

Work on CCn1nc(C(C)(C)C)cc1C(=O)Nc1cccc2c1CN(C)C2=O [Compound 55, N-(2,3-dihydro-2-methyl-1-oxo-1H-isoindol-4-yl)-3-(1,1-dimethylethyl)-1-ethyl-1H-pyrazole-5-carboxamide] yielded a pest or weed control at 500 g/ha (giant foxtail [1]; [3]) of 30%, a pest or weed control at 2000 g/ha (giant foxtail [1]; [3]) of 80% and a pest or weed control at 500 g/ha (giant foxtail [1]; pre-emergence, Preemergence, visual rating, 0 to 100 scale (0 no effect, 100 complete control), read-out: Foxtail, Giant plant response rating) of 60%. It also gave a pest or weed control at 2000 g/ha (giant foxtail [1]; pre-emergence, Preemergence, 0 to 100 scale, 0 no effect, 100 complete control, read-out: Foxtail, Giant plant response rating) of 100%, a pest or weed control at 500 g/ha (redroot pigweed; [4]) of 90% and a pest or weed control at 2000 g/ha (redroot pigweed; [4]) of 100%. For the same compound, the pest or weed control at 500 g/ha (redroot pigweed; pre-emergence, Preemergence, visual rating, 0 to 100 scale (0 no effect, 100 complete control), read-out: Pigweed plant response rating) was 100%, the pest or weed control at 2000 g/ha (redroot pigweed; pre-emergence, Preemergence, 0 to 100 scale, 0 no effect, 100 complete control, read-out: Pigweed plant response rating) was 100% and the “Plant response rating (0 = no effect, 100 = complete control), Bermudagrass” value (bermudagrass; 62 g ai/ha, preemergence) was 60. The pest or weed control at 125 g/ha (bermudagrass; Cynodon dactylon, pre-emergence, 312 h, 125 g ai/ha, scale 0 (no effect) to 100 (complete control), visual, 12 to 14 days, read-out: Plant response rating, Bermudagrass) was 100%, the pest or weed control at 250 g/ha (bermudagrass; Cynodon dactylon, pre-emergence, 312 h, 250 g ai/ha, scale 0 to 100 (0 no effect, 100 complete control), visual, 12 to 14 days, read-out: Plant response rating, Bermudagrass) was 100% and the pest or weed control at 500 g/ha (bermudagrass; Cynodon dactylon, pre-emergence, 312 h, Preemergence, 500 g ai/ha, scale 0 to 100, 0 no effect, 100 complete control, read-out: Bermudagrass plant response rating) was 100%. For the same compound, the “Plant response rating (0 = no effect, 100 = complete control), Crabgrass, Large” value (large crabgrass; 62 g ai/ha, preemergence) was 15, the pest or weed control at 125 g/ha (large crabgrass; Digitaria sanguinalis, pre-emergence, 312 h, 125 g ai/ha, scale 0 (no effect) to 100 (complete control), visual, 12 to 14 days, read-out: Plant response rating, Crabgrass, Large) was 90% and the pest or weed control at 250 g/ha (large crabgrass; Digitaria sanguinalis, pre-emergence, 312 h, 250 g ai/ha, scale 0 to 100 (0 no effect, 100 complete control), visual, 12 to 14 days, read-out: Plant response rating, Crabgrass, Large) was 95%. The “Crabgrass, Large plant response rating” value (large crabgrass; [5]) was 100, the “Plant response rating (0 = no effect, 100 = complete control), Cupgrass, Woolly” value (woolly cupgrass; 62 g ai/ha, preemergence) was 0 and the pest or weed control at 125 g/ha (woolly cupgrass; Eriochloa villosa, pre-emergence, 312 h, 125 g ai/ha, scale 0 (no effect) to 100 (complete control), visual, 12 to 14 days, read-out: Plant response rating, Cupgrass, Woolly) was 25%. The pest or weed control at 250 g/ha (woolly cupgrass; Eriochloa villosa, pre-emergence, 312 h, 250 g ai/ha, scale 0 to 100 (0 no effect, 100 complete control), visual, 12 to 14 days, read-out: Plant response rating, Cupgrass, Woolly) was 55%, the “Cupgrass, Woolly plant response rating” value (woolly cupgrass; [5]) was 65 and the “Plant response rating (0 = no effect, 100 = complete control), Foxtail, Giant” value (giant foxtail [2]; 62 g ai/ha, preemergence) was 0. For the same compound, the “Foxtail, Giant plant response rating” value (giant foxtail [2]; [5]) was 100, the pest or weed control at 125 g/ha (giant foxtail [2]; Setaria faberi, pre-emergence, 312 h, 125 g ai/ha, scale 0 (no effect) to 100 (complete control), visual, 12 to 14 days, read-out: Plant response rating, Foxtail, Giant) was 50% and the pest or weed control at 250 g/ha (giant foxtail [2]; Setaria faberi, pre-emergence, 312 h, 250 g ai/ha, scale 0 to 100 (0 no effect, 100 complete control), visual, 12 to 14 days, read-out: Plant response rating, Foxtail, Giant) was 75%. The “Plant response rating (0 = no effect, 100 = complete control), Goosegrass” value (goosegrass; 62 g ai/ha, preemergence) was 0, the pest or weed control at 125 g/ha (goosegrass; Eleusine indica, pre-emergence, 312 h, 125 g ai/ha, scale 0 (no effect) to 100 (complete control), visual, 12 to 14 days, read-out: Plant response rating, Goosegrass) was 50% and the pest or weed control at 250 g/ha (goosegrass; Eleusine indica, pre-emergence, 312 h, 250 g ai/ha, scale 0 to 100 (0 no effect, 100 complete control), visual, 12 to 14 days, read-out: Plant response rating, Goosegrass) was 75%. For the same compound, the “Goosegrass plant response rating” value (goosegrass; [5]) was 95, the “Plant response rating (0 = no effect, 100 = complete control), Pigweed” value (pigweed; 62 g ai/ha, preemergence) was 95 and the pest or weed control at 125 g/ha (pigweed; Amaranthus retroflexus, pre-emergence, 125 g ai/ha, scale 0 (no effect) to 100 (complete control), visual, 12 to 14 days, read-out: Plant response rating, Pigweed) was 95%. For the same compound, the pest or weed control at 250 g/ha (pigweed; Amaranthus retroflexus, pre-emergence, 250 g ai/ha, scale 0 to 100 (0 no effect, 100 complete control), visual, 12 to 14 days, read-out: Plant response rating, Pigweed) was 95%, the “Pigweed plant response rating” value (pigweed; [5]) was 95 and the pest or weed control at 62 g/ha (ducksalad; 62 g ai/ha, scale 0 to 100 (0 no effect, 100 complete control), read-out: Ducksalad plant response rating) was 0%. It also gave a pest or weed control at 125 g/ha (ducksalad; 125 g ai/ha, scale of 0 to 100, 0 is no effect, 100 is complete control, read-out: Ducksalad plant response rating) of 0%, a pest or weed control at 250 g/ha (ducksalad; 250 g ai/ha, scale of 0 to 100, 0 is no effect, 100 is complete control, read-out: Ducksalad plant response rating) of 55% and a pest or weed control at 500 g/ha (ducksalad; 500 g ai/ha, visual rating after 12 to 14 days, scale 0 to 100 (0 no effect, 100 complete control), read-out: Plant response rating, Ducksalad) of 80%.
